Columns and labels:
[1] = Reasons for premature treatment discontinuation; format: in vivo; settings: ponesimod 20 mg, teriflunomide 14 mg
Experimental: A total of 1468 subjects were screened. Of those, 1133 subjects were randomized (567 to ponesimod 20 mg and 566 to teriflunomide 14 mg) across 162 sites in 28 countries, and 1131 subjects received at least one dose of study drug. The disposition of subjects is summarized in Table 1 and a summary of reasons (primary reason) for treatment discontinuation are shown in Table 2. Overall treatment and study discontinuation were balanced across both treatment arms. A total of 6.5% and 2.5% of the subjects discontinued due to AEs or tolerability related reasons in ponesimod 20 mg and teriflunomide 14 mg, respectively, while 1.9% and 4.3% discontinued due to efficacy related reasons. There were 2 deaths reported during the study—both on teriflunomide 14 mg.

[2] = tested on: adult subjects with relapsing MS; assay: FSIQ-RMS weekly symptoms score, change from baseline to Week 108; format: in vivo, human; settings: FSIQ-RMS weekly symptoms score
From the text: In some embodiments, the patient-reported outcome questionnaire is the Fatigue Symptoms and Impact Questionnaire—Relapsing Multiple Sclerosis (FSIQ-RMS) (available from Mapi Research Trust). The FSIQ-RMS is an MS specific 20-item PRO measure that comprises 2 domains: one measuring MS symptoms and one measuring MS-related impacts. See Hudgens S, et al., Development and Validation of the FSIQ-RMS: A New Patient-Reported Questionnaire to Assess Symptoms and Impacts of Fatigue in Relapsing Multiple Sclerosis. Value Health. 2019 April; 22 (4): 453-466. doi: 10.1016/j.jval.2018.11.007. Epub 2019 Feb. 21. PubMed PMID: 30975397. With 7 symptom items and 13 impact items (in 3 impacts subdomains: physical, cognitive and emotional, and coping), the FSIQ-RMS is a comprehensive, valid, and reliable measure of fatigue-related symptoms and impacts in RMS patients. FIG. 2B depicts a conceptual framework for the FSIQ-RMS.
(§1) In some embodiments, the patient-reported outcome questionnaire is the symptom domain of the FSIQ-RMS. The FSIQ-RMS symptom domain (FSIQ-RMS-S) consists of seven items assessing fatigue-related symptoms with a recall period of 24 hours measured on an 11-point numeric rating scale; the standardized symptom domain score ranges from 0 to 100 with a higher score indicating greater fatigue. This domain (i.e., section 1 of the questionnaire) is completed on 7 consecutive days.
The patient-reported outcome questionnaire used for the below Examples is the Fatigue Symptoms and Impact Questionnaire-Relapsing Multiple Sclerosis (FSIQ-RMS). The FSIQ-RMS is an MS specific 20-item PRO measure that comprises 2 domains: one measuring MS symptoms (7 items) and one measuring MS-related impacts (13 items). The 7 symptom items and 13 impact items (in 3 impacts subdomains: physical, cognitive and emotional, and coping) are presented below.
For the MS symptoms domain, the FSIQ-RMS asks about a patient's fatigue-related symptoms of relapsing MS over the past 24 hours while doing routine daily activities (e.g., housework, yard work, shopping, working, etc.) for Items 1-6 or while at rest (e.g., reading a book, watching TV, etc.) for Item 7. Patients are asked to select a response on a scale of Oto 10 that best describes their experience and are asked to not skip any questions, with no answers being right or wrong.
Secondary efficacy variables and testing strategy: Four secondary efficacy endpoints were analyzed as per the statistical testing strategy outlined in FIG. 1. • Change from baseline to Week 108 in fatigue-related symptoms as measured by the symptoms domain of the FSIQ-RMS patient-reported outcome [Fatigue] • Cumulative number of combined unique active lesions from baseline to Week 108 on brain MRI [CUALs] • Time to first 12-week confirmed disability accumulation (CDA) from baseline to EOS on Expanded Disability Status Scale (EDSS) [12-week CDA] • Time to first 24-week CDA from baseline to EOS on EDSS [24-week CDA]
as §1, with “The” for “In some embodiments, the patient-reported outcome questionnaire is the symptom domain of the FSIQ-RMS. The”
FSIQ-RMS was completed during the pre-randomization period, at Visits 6, 7, 10, and 12 (Weeks 12, 24, 60, 84), 14 (EOT), and at unscheduled visits due to relapses (R1, R2, etc.) or other unscheduled visits (U1, U2, etc.) as described below. If applicable, FSIQ-RMS was performed at the corresponding visits in the PTOP.
The completion of the FSIQ-RMS during the pre-randomization period was done as follows: At Visit 1 (Screening), subjects who appear eligible based on the assessments made during this visit (but prior to the results from the laboratory assessments are received) were provided with the electronic device containing the FSIQ-RMS. […]

[3] = ALT increase relative to ULN; format: in vivo, human; settings: ponesimod 20 mg arm, teriflunomide 14 mg arm
[4] = Treatment-emergent adverse events, Safety Set
Experimental: A prospective, multicenter, randomized, double-blind, active controlled, parallel-group, phase III, superiority study was conducted.
The Safety Set (SAF) included all randomized subjects who received at least one dose of study treatment. Subjects were analyzed based on actual treatment taken, not randomized treatment.

[5] = 12-lead ECG heart rate on Day 1, change from pre-dose; format: in vivo, human
Experimental: As per up-titration regimen, the dose of ponesimod on Day 1 is 2 mg.

[6] = other S1P receptor modulators, for comparison; cited from earlier work
[7] = patients without Gd+T1 lesions at baseline
[8] = Day 1 (ponesimod dose 2 mg per up-titration), Safety Set, N = 565 / 566
[9] = Safety Set, ponesimod 20 mg N = 565, teriflunomide 14 mg N = 566
[10] = ponesimod 20 mg, teriflunomide 14 mg

## C/C(O)=C(\C#N)C(=O)Nc1ccc(C(F)(F)F)cc1 [Teriflunomide]
[1]
  Subjects who discontinued due to AEs or tolerability related reasons: 2.5%
[2]; patients with baseline fatigue below the median
  Change From Baseline to Week 108: Stable or Improved: about 55%
[2]; [7]
  Change From Baseline to Week 108: Stable or Improved: 57.0%
  Change From Baseline to Week 108: Worsened (≥6.3): 43.0%
[2]; patients without Gd+T1 lesions at baseline, listed as teriflunomide
  Change From Baseline to Week 108: Stable or Improved: about 57%
[3]
  Proportion of subjects who experienced ALT increase >3×ULN: 8.3%
  Proportion of subjects who experienced ALT increase >8×ULN: 2.1%
[4]; [8]
  AESI effect on heart rate and rhythm (including hypotension) on Day 1: Subjects with at least one AE: 0.4%
  AESI heart rate and rhythm on Day 1, PT: Atrioventricular block first degree: 0 n
  AESI heart rate and rhythm on Day 1, PT: Bradycardia: 0 n
  AESI heart rate and rhythm on Day 1, PT: Bundle branch block left: 0 n
  AESI heart rate and rhythm on Day 1, PT: Bundle branch block right: 0 n
  AESI heart rate and rhythm on Day 1, PT: Defect conduction intraventricular: 0 n
  AESI heart rate and rhythm on Day 1, PT: Sinus arrhythmia: 0 n
  AESI heart rate and rhythm on Day 1, PT: Sinus bradycardia: 0 n
[4]; [9]
  Subject with at least one AE (treatment-emergent): 88.2%
  Subject with at least one AE leading to study drug discontinuation: 6.0%
  Subject with at least one Serious AE: 8.1%
  TEAEs leading to premature discontinuation of study drug, SOC: Eye disorders: 0 n
  TEAEs leading to premature discontinuation of study drug, SOC: Respiratory, thoracic and mediastinal disorders: 0 n
  TEAEs leading to premature discontinuation of study drug, SOC: Vascular disorders: 0 n
  Treatment-emergent AESI: Hepatobiliary disorders/Liver enzyme abnormality: 14.5%
  Treatment-emergent AESI: Hypertension: 9.0%
  Treatment-emergent AESI: Pulmonary events: 2.7%
[4]; [10]
  TEAE: ALT increased: 9.4%
  TEAE: headache: 12.7%
  TEAE: nasopharyngitis: 16.8%
  TEAE: upper respiratory tract infection: 10.4%
[5]; Day 1, 2-hours post dose, ponesimod arm dose on Day 1 is 2 mg
  Mean heart rate reduction compared to pre-dose (maximum): −1.7 bpm
[5]; Day 1, all had pre-treatment HR<55 bpm
  Subjects with asymptomatic post-dose HR≤40 bpm: none

## CCCCCCCCc1ccc(CCC(N)(CO)CO)cc1 [fingolimod]
[6]
  ECG HR effect: nadir post-dose: ~6 h

## CCc1cc(/C(C)=N/OCc2ccc(C3CCCCC3)c(C(F)(F)F)c2)ccc1CN1CC(C(=O)O)C1 [siponimod]
[6]
  ECG HR effect: nadir post-dose: 3 to 4 h

From patent US12502379B2, “Ponesimod for avoiding worsening of fatigue-related symptoms in multiple sclerosis patients” (Vanda Pharmaceuticals Inc., priority 2019, dated 2025)
